In BigSolDB 2.1:

N#CCc1ccccc1[N+](=O)[O-]
Settings	solubility (mole fraction)
in 1,4-dioxane, 288.15 K	0.216
in 1,4-dioxane, 293.15 K	0.226
in 1,4-dioxane, 298.15 K	0.241
in 1,4-dioxane, 303.15 K	0.257
in 1,4-dioxane, 308.15 K	0.278
in 1,4-dioxane, 313.15 K	0.303
in 1,4-dioxane, 318.15 K	0.334
in 1,4-dioxane, 323.15 K	0.371
in 1,4-dioxane, 328.15 K	0.414
in 1,4-dioxane, 333.15 K	0.469
in 2-butanone, 278.15 K	0.108
in 2-butanone, 283.15 K	0.128
in 2-butanone, 288.15 K	0.151
in 2-butanone, 293.15 K	0.173
in 2-butanone, 298.15 K	0.197
in 2-butanone, 303.15 K	0.235
in 2-butanone, 308.15 K	0.269
in 2-butanone, 313.15 K	0.312
in 2-butanone, 318.15 K	0.357
in 2-butanone, 323.15 K	0.422
in 2-butanone, 328.15 K	0.475
in 2-butanone, 333.15 K	0.543
in acetic acid, 293.15 K	0.0478
in acetic acid, 298.15 K	0.0574
in acetic acid, 303.15 K	0.0694
in acetic acid, 308.15 K	0.0846
in acetic acid, 313.15 K	0.104
in acetic acid, 318.15 K	0.128
in acetic acid, 323.15 K	0.158
in acetic acid, 328.15 K	0.196
in acetic acid, 333.15 K	0.244
in acetone, 278.15 K	0.13
in acetone, 283.15 K	0.147
in acetone, 288.15 K	0.171
in acetone, 293.15 K	0.194
in acetone, 298.15 K	0.227
in acetone, 303.15 K	0.259
in acetone, 308.15 K	0.295
in acetone, 313.15 K	0.342
in acetone, 318.15 K	0.385
in acetone, 323.15 K	0.439
in acetone, 328.15 K	0.506
in acetonitrile, 278.15 K	0.0932
in acetonitrile, 283.15 K	0.107
in acetonitrile, 288.15 K	0.124
in acetonitrile, 293.15 K	0.143
in acetonitrile, 298.15 K	0.168
in acetonitrile, 303.15 K	0.195
in acetonitrile, 308.15 K	0.228
in acetonitrile, 313.15 K	0.264
in acetonitrile, 318.15 K	0.31
in acetonitrile, 323.15 K	0.362
in acetonitrile, 328.15 K	0.424
in acetonitrile, 333.15 K	0.498
in ethanol, 278.15 K	0.00458
in ethanol, 283.15 K	0.00566
in ethanol, 288.15 K	0.00705
in ethanol, 293.15 K	0.00939
in ethanol, 298.15 K	0.0118
in ethanol, 303.15 K	0.0156
in ethanol, 308.15 K	0.0213
in ethanol, 313.15 K	0.0277
in ethanol, 318.15 K	0.0383
in ethanol, 323.15 K	0.0487
in ethanol, 328.15 K	0.0649
in ethanol, 333.15 K	0.0838
in ethyl acetate, 278.15 K	0.13
in ethyl acetate, 283.15 K	0.142
in ethyl acetate, 288.15 K	0.16
in ethyl acetate, 293.15 K	0.177
in ethyl acetate, 298.15 K	0.199
in ethyl acetate, 303.15 K	0.219
in ethyl acetate, 308.15 K	0.246
in ethyl acetate, 313.15 K	0.278
in ethyl acetate, 318.15 K	0.313
in ethyl acetate, 323.15 K	0.357
in ethyl acetate, 328.15 K	0.407
in ethyl acetate, 333.15 K	0.466
in ethylbenzene, 278.15 K	0.0237
in ethylbenzene, 283.15 K	0.0285
in ethylbenzene, 288.15 K	0.0346
in ethylbenzene, 293.15 K	0.0423
in ethylbenzene, 298.15 K	0.052
in ethylbenzene, 303.15 K	0.0644
in ethylbenzene, 308.15 K	0.0803
in ethylbenzene, 313.15 K	0.101
in ethylbenzene, 318.15 K	0.126
in ethylbenzene, 323.15 K	0.16
in ethylbenzene, 328.15 K	0.204
in ethylbenzene, 333.15 K	0.26
in isobutanol, 278.15 K	0.00332
in isobutanol, 283.15 K	0.00416
in isobutanol, 288.15 K	0.00491
in isobutanol, 293.15 K	0.00639
in isobutanol, 298.15 K	0.00803
in isobutanol, 303.15 K	0.0102
in isobutanol, 308.15 K	0.013
in isobutanol, 313.15 K	0.0171
in isobutanol, 318.15 K	0.0228
in isobutanol, 323.15 K	0.0303
in isobutanol, 328.15 K	0.0404
in isobutanol, 333.15 K	0.0546
in isopropanol, 278.15 K	0.00411
in isopropanol, 283.15 K	0.00484
in isopropanol, 288.15 K	0.00579
in isopropanol, 293.15 K	0.00751
in isopropanol, 298.15 K	0.00982
in isopropanol, 303.15 K	0.0132
in isopropanol, 308.15 K	0.0177
in isopropanol, 313.15 K	0.0228
in isopropanol, 318.15 K	0.03
in isopropanol, 323.15 K	0.0384
in isopropanol, 328.15 K	0.0492
in isopropanol, 333.15 K	0.0627
in methanol, 278.15 K	0.00641
in methanol, 283.15 K	0.00842
in methanol, 288.15 K	0.0105
in methanol, 293.15 K	0.0131
in methanol, 298.15 K	0.0174
in methanol, 303.15 K	0.0235
in methanol, 308.15 K	0.0305
in methanol, 313.15 K	0.0395
in methanol, 318.15 K	0.0514
in methanol, 323.15 K	0.0661
in methanol, 328.15 K	0.0842
in methanol, 333.15 K	0.108
in n-butanol, 278.15 K	0.00351
in n-butanol, 283.15 K	0.00437
in n-butanol, 288.15 K	0.00569
in n-butanol, 293.15 K	0.00731
in n-butanol, 298.15 K	0.00969
in n-butanol, 303.15 K	0.0129
in n-butanol, 308.15 K	0.0175
in n-butanol, 313.15 K	0.0223
in n-butanol, 318.15 K	0.0293
in n-butanol, 323.15 K	0.0383
in n-butanol, 328.15 K	0.0491
in n-butanol, 333.15 K	0.0624
in n-propanol, 278.15 K	0.00412
in n-propanol, 283.15 K	0.00553
in n-propanol, 288.15 K	0.00681
in n-propanol, 293.15 K	0.00917
in n-propanol, 298.15 K	0.0115
in n-propanol, 303.15 K	0.0151
in n-propanol, 308.15 K	0.0196
in n-propanol, 313.15 K	0.0254
in n-propanol, 318.15 K	0.0333
in n-propanol, 323.15 K	0.0426
in n-propanol, 328.15 K	0.0544
in n-propanol, 333.15 K	0.0685
in toluene, 278.15 K	0.0293
in toluene, 283.15 K	0.0371
in toluene, 288.15 K	0.0471
in toluene, 293.15 K	0.0613
in toluene, 298.15 K	0.0738
in toluene, 303.15 K	0.0968
in toluene, 308.15 K	0.123
in toluene, 313.15 K	0.153
in toluene, 318.15 K	0.195
in toluene, 323.15 K	0.241
in toluene, 328.15 K	0.303
in toluene, 333.15 K	0.377
in water, 278.15 K	3.75e-05
in water, 283.15 K	4.65e-05
in water, 288.15 K	5.57e-05
in water, 293.15 K	6.69e-05
in water, 298.15 K	8.19e-05
in water, 303.15 K	0.000102
in water, 308.15 K	0.000125
in water, 313.15 K	0.000153
in water, 318.15 K	0.000186
in water, 323.15 K	0.000225
in water, 328.15 K	0.000274
in water, 333.15 K	0.000333
